Measured values: US10301272B2, “Carboxamide or sulfonamide substituted thiazoles and related derivatives as modulators for the orphan nuclear receptor ROR[γ]” (Phenex Pharmaceuticals AG, priority 2012, dated 2019)
Read-outs that look alike come from different tables or passages of the source.

Key:
RORγ = RORγ (Homo sapiens, UniProt P51449); assay: RORγ Gal4 Reporter Gene Assay; assay type: cell-based
Procedure, shortened: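 Cells at 5×10^5/well were transfected with RORγ fragments fused to the GAL4 DNA-binding domain (CMV promoter), a 5×GAL4-site firefly luciferase reporter and CMV-Renilla luciferase for normalization. About 4 h later serum-free MEM and compound were added (vehicle ≤0.1%). Cultures at 37 °C, 5% CO2; at least triplicates.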

[1] = molecular target: RORγ ligand binding domain (LBD) (Homo sapiens (Human), UniProt P51449); assay: TR-FRET Activity Assay (ligand sensing assay, LANCE); details: for pIC50 (FRET): TR-FRET, interaction of RORγ-LBD with coactivator peptide
Chain of RORγ ligand binding domain (LBD) (P51449 269-508): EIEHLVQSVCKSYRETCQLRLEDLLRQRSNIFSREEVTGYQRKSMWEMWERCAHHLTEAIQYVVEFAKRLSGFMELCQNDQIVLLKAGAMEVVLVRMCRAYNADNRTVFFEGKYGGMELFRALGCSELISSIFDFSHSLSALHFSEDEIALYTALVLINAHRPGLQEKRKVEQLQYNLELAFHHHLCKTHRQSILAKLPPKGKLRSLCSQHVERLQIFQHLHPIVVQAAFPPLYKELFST

Chain of RORγ (P51449 whole entry, looked up, the tested form may be a part): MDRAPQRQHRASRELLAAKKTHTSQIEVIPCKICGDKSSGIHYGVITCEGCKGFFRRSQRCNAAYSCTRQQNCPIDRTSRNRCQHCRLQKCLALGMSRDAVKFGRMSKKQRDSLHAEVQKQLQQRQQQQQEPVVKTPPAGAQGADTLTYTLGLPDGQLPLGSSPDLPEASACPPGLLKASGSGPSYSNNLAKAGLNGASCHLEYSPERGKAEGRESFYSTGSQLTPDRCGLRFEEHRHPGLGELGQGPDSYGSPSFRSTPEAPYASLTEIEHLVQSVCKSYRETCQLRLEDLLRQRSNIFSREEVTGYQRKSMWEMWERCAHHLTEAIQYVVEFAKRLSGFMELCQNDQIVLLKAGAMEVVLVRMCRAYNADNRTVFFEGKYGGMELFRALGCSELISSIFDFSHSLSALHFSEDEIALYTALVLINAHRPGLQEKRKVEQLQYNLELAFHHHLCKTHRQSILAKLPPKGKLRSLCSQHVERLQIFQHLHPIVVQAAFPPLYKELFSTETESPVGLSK

O=C(c1nc(CC2CCCCC2)c(-c2ccc(S(=O)(=O)NC3CCOCC3)c3ccccc23)s1)N1CC2(CCS(=O)(=O)CC2)C1 [21/9]
pIC50 (FF) (RORγ): 6.2/7.3/7.4 | pIC50 (REN) (RORγ): 6.2/7.3/7.4 | pIC50 (FRET) [1]: 6.2/7.3/7.4

CC(C)(C)NS(=O)(=O)c1ccc(-c2oc(C(=O)NCC3(O)CCS(=O)(=O)CC3)nc2CC2CCCCC2)c2ccccc12 [100/8]
pIC50 (FF) (RORγ): 6.5/8.0/8.2 | pIC50 (REN) (RORγ): 6.5/8.0/8.2 | pIC50 (FRET) [1]: 6.5/8.0/8.2

CC(C)(C)c1cc(-c2nc(C(N)=O)sc2CC2CCCCC2)cc(C(C)(C)C)c1 [Example 1, 5-(Cyclohexylmethyl)-4-(3,5-di-tert-butylphenyl)thiazole-2-carboxamide]
pIC50 (FF) (RORγ): 6.5/5.8/5.8 | pIC50 (REN) (RORγ): 6.5/5.8/5.8 | pIC50 (FRET) [1]: 6.5/5.8/5.8

CC(C)(C)NS(=O)(=O)c1ccc(-c2sc(C(=O)N[C@H]3C[C@H](C(=O)O)C3)nc2CC2CCCCC2)c(F)c1OC(F)(F)F [19/10]
pIC50 (FF) (RORγ): 6.7/8.4/8.5 | pIC50 (REN) (RORγ): 6.7/8.4/8.5 | pIC50 (FRET) [1]: 6.7/8.4/8.5

CC(C)(C)c1cc(-c2sc(C(=O)N[C@H]3C[C@H](C(=O)O)C3)nc2CC2CCCCC2)cc(C(F)F)c1 [7/5]
pIC50 (FF) (RORγ): 6.3/7.0/7.1 | pIC50 (REN) (RORγ): 6.3/7.0/7.1 | pIC50 (FRET) [1]: 6.3/7.0/7.1

O=C(NC1CCS(=O)(=O)CC1)c1nc(CC2CCCCC2)c(-c2ccc(N3CCOCC3)c3ccccc23)s1 [7/27]
pIC50 (FF) (RORγ): 6.5/6.9/6.9 | pIC50 (REN) (RORγ): 6.5/6.9/6.9 | pIC50 (FRET) [1]: 6.5

CC(C)(C)NS(=O)(=O)c1ccc(-c2sc(C(=O)NCC3(C(N)=O)CCOCC3)nc2CC2CCCCC2)c2ccccc12 [6/3]
pIC50 (FF) (RORγ): 6.5/8.5/8.7 | pIC50 (REN) (RORγ): 6.5/8.5/8.7 | pIC50 (FRET) [1]: 6.5/8.5/8.7

CC(C)(O)CNC(=O)c1nc(CC2CCC2)c(-c2ccc(S(=O)(=O)NC(C)(C)C)c(Cl)c2Cl)s1 [Example 21, 5-(4-(N-(tert-butyl)sulfamoyl)-2,3-dichlorophenyl)-4-(cyclobutylmethyl)-N-(2-hydroxy-2-methylpropyl)thiazole-2-carboxamide]
pIC50 (FF) (RORγ): 7.0/8.1/8.2 | pIC50 (REN) (RORγ): 7.0/8.1/8.2 | pIC50 (FRET) [1]: 7.0/8.1/8.2

CC(C)(C)NS(=O)(=O)c1ccc(-c2sc(C(=O)NCC(C)(C)C(=O)O)nc2CC2CCCCC2)cc1C(F)(F)F [9/3]
pIC50 (FF) (RORγ): 6.4/7.2/7.4 | pIC50 (REN) (RORγ): 6.4/7.2/7.4 | pIC50 (FRET) [1]: 6.4/7.2/7.4

CC(C)(C)NS(=O)(=O)c1ccc(-c2sc(C(=O)NC3CCS(=O)(=O)CC3)nc2CC2CCCCC2)cc1C(C)(C)O [6/26]
pIC50 (FF) (RORγ): 6.6/7.7/7.8 | pIC50 (REN) (RORγ): 6.6/7.7/7.8 | pIC50 (FRET) [1]: 6.6/7.7/7.8

CC(C)(O)CNC(=O)c1nc(CC2CCCCC2)c(-c2ccc(S(=O)(=O)NC(C)(C)C)c(Cl)c2OC(F)F)s1 [21/4]
pIC50 (FF) (RORγ): 6.9/8.2/8.4 | pIC50 (REN) (RORγ): 6.9/8.2/8.4 | pIC50 (FRET) [1]: 6.9/8.2/8.4

CC(C)(C)NS(=O)(=O)c1ccc(-c2sc(C(=O)NCCC(C)(C)C(N)=O)nc2CC2CCCCC2)cc1C(F)(F)F [Example 10, N-(4-Amino-3,3-dimethyl-4-oxobutyl)-5-(4-(N-(tert-butyl)sulfamoyl)-3-(trifluoromethyl)phenyl)-4-(cyclohexylmethyl)thiazole-2-carboxamide]
pIC50 (FF) (RORγ): 5.9/6.9/7.0 | pIC50 (REN) (RORγ): 5.9/6.9/7.0 | pIC50 (FRET) [1]: 5.9/6.9/7.0

NS(=O)(=O)c1c(Cl)cc(-c2sc(C(=O)NC3CCOCC3)nc2CC2CCCCC2)cc1C(F)(F)F [Example 17/1]
pIC50 (FF) (RORγ): 5.6/6.1/6.5 | pIC50 (REN) (RORγ): 5.6/6.1/6.5 | pIC50 (FRET) [1]: 5.6/6.1/6.5

CC(C)(C)NS(=O)(=O)c1ccc(-c2oc(C(=O)N3CC4(CCSCC4)C3)nc2CC2CCCCC2)c2ccccc12 [100/11]
pIC50 (FF) (RORγ): 6.8/7.1/7.3 | pIC50 (REN) (RORγ): 6.8/7.1/7.3 | pIC50 (FRET) [1]: 6.8/7.1/7.3

CC(C)(C)NC(=O)c1ccc(-c2sc(C(=O)NC3CCS(=O)(=O)CC3)nc2CC2CCCCC2)c2ccccc12 [7/25]
pIC50 (FF) (RORγ): 6.2/6.6/6.5 | pIC50 (REN) (RORγ): 6.2/6.6/6.5 | pIC50 (FRET) [1]: 6.2/6.6/6.5

CC(C)(C)NS(=O)(=O)c1ccc(-c2oc(C(=O)NC34CCC(C(=O)O)(CC3)C4)nc2CC2CCCCC2)c2ccccc12 [100/23]
pIC50 (FF) (RORγ): 6.1/8.3/8.4 | pIC50 (REN) (RORγ): 6.1/8.3/8.4 | pIC50 (FRET) [1]: 6.1/8.3/8.4

CNS(=O)(=O)c1ccc(-c2sc(C(=O)N3CC4(CCS(=O)(=O)CC4)C3)nc2CC2CCCCC2)c2ccccc12 [14/5]
pIC50 (FF) (RORγ): 6.3/6.6/6.6 | pIC50 (REN) (RORγ): 6.3/6.6/6.6 | pIC50 (FRET) [1]: 6.3/6.6/6.6

CC(C)(C)c1cc(-c2oc(C(=O)N[C@H]3C[C@H](C(=O)O)C3)nc2CC2CCCCC2)cc(C2(C)CC2)c1 [100/20]
pIC50 (FF) (RORγ): 6.0/6.8/7.0 | pIC50 (REN) (RORγ): 6.0/6.8/7.0 | pIC50 (FRET) [1]: 6.0/6.8/7.0

CC(C)(O)CNC(=O)c1nc(CC2CCCCC2)c(-c2ccc(S(=O)(=O)NC(C)(C)C)c(C(F)F)c2F)s1 [6/18]
pIC50 (FF) (RORγ): 7.0/8.5/8.7 | pIC50 (REN) (RORγ): 7.0/8.5/8.7 | pIC50 (FRET) [1]: 7.0/8.5/8.7

CC(C)(O)CNC(=O)c1nc(CC2CCCCC2)c(-c2ccc(S(=O)(=O)NC(C)(C)C)c(C(C)(C)O)c2)s1 [6/23]
pIC50 (FF) (RORγ): 6.6/7.5/7.6 | pIC50 (REN) (RORγ): 6.6/7.5/7.6 | pIC50 (FRET) [1]: 6.6/7.5/7.6

CC(C)(C)c1cc(-c2sc(C(N)=O)nc2CC2CCCCC2)cc(C(C)(C)C)c1 [Example 5, 4-(Cyclohexylmethyl)-5-(3,5-di-tert-butylphenyl)thiazole-2-carboxamide]
pIC50 (FF) (RORγ): 6.7/6.3/6.1 | pIC50 (REN) (RORγ): 6.7/6.3/6.1 | pIC50 (FRET) [1]: 6.7/6.3/6.1

CC(C)(C)NS(=O)(=O)c1ccc(-c2sc(C(=O)NC34CC(C(=O)O)(C3)C4)nc2CC2CCCCC2)c(Cl)c1Cl [6/38]
pIC50 (FF) (RORγ): 6.8/7.8/7.9 | pIC50 (REN) (RORγ): 6.8/7.8/7.9 | pIC50 (FRET) [1]: 6.8/7.8/7.9

CC(C)(O)c1cc(-c2sc(C(=O)N[C@H]3C[C@@H](C(=O)O)C3)nc2CC2CCCCC2)cc(C2(C)CC2)c1 [9/10]
pIC50 (FF) (RORγ): 6.3/7.2/7.2 | pIC50 (REN) (RORγ): 6.3/7.2/7.2 | pIC50 (FRET) [1]: 6.3/7.2/7.2

CC(C)(O)CNC(=O)c1nc(CC2CCCCC2)c(-c2ccc(S(=O)(=O)NC(C)(C)C)c3ccccc23)o1 [100/7]
pIC50 (FF) (RORγ): 6.6/7.7/7.9 | pIC50 (REN) (RORγ): 6.6/7.7/7.9 | pIC50 (FRET) [1]: 6.6/7.7/7.9

CC(C)(C)NS(=O)(=O)c1ccc(-c2oc(C(=O)N3CC4(CCOCC4)C3)nc2CC2CCCCC2)c2ccccc12 [100/10]
pIC50 (FF) (RORγ): 6.4/7.2/7.4 | pIC50 (REN) (RORγ): 6.4/7.2/7.4 | pIC50 (FRET) [1]: 6.4/7.2/7.4

CC(C)(C)NS(=O)(=O)c1ccc(-c2sc(NS(C)(=O)=O)nc2CC2CCCCC2)cc1C(F)(F)F [Example 201, N-(tert-Butyl)-4-(4-(cyclohexylmethyl)-2-(methylsulfonamido)thiazol-5-yl)-2-(trifluoromethyl)benzenesulfonamide]
pIC50 (FF) (RORγ): 6.0/6.5/6.6 | pIC50 (REN) (RORγ): 6.0/6.5/6.6 | pIC50 (FRET) [1]: 6.0/6.5/6.6

CC(C)(C)NS(=O)(=O)c1ccc(-c2sc(C(=O)NC3CCS(=O)(=O)CC3)nc2CC2CCCCC2)c(Cl)c1Cl [6/43]
pIC50 (FF) (RORγ): 7.0/8.7/8.7 | pIC50 (REN) (RORγ): 7.0/8.7/8.7 | pIC50 (FRET) [1]: 7.0/8.7/8.7

CC1(c2cc(Cl)cc(-c3sc(C(=O)N[C@H]4C[C@H](C(=O)O)C4)nc3CC3CCCCC3)c2)CC1 [9/9]
pIC50 (FF) (RORγ): 5.4/6.9/7.0 | pIC50 (REN) (RORγ): 5.4/6.9/7.0 | pIC50 (FRET) [1]: 5.4/6.9/7.0

CC(C)(C)NS(=O)(=O)c1ccc(-c2sc(C(=O)NCC3(C(N)=O)CCOCC3)nc2CC2CCCCC2)cc1C(C)(C)C [Example 6/1]
pIC50 (FF) (RORγ): 6.5/7.5/7.7 | pIC50 (REN) (RORγ): 6.5/7.5/7.7 | pIC50 (FRET) [1]: 6.5/7.5/7.7

CC1(c2cc(C(=O)NC3(C#N)CC3)cc(-c3sc(C(=O)NC4CCS(=O)(=O)CC4)nc3CC3CCCCC3)c2)CC1 [10/2]
pIC50 (FF) (RORγ): 6.6/7.3/7.4 | pIC50 (REN) (RORγ): 6.6/7.3/7.4 | pIC50 (FRET) [1]: 6.6/7.3/7.4

CC(C)(C)c1cc(-c2sc(C(=O)N[C@H]3C[C@H](C(=O)O)C3)nc2CC2CCCCC2)cc(C(C)(C)O)n1 [8/10]
IC50 (RORγ; firefly (FF) luciferase, 293T cells, read-out: pIC50 (FF) (converted)): 158 nM | IC50 (RORγ; renilla normalised (RENnorm) luciferase, 293T cells, read-out: pIC50 (REN) (converted)): 158 nM | IC50 [1]: 631 nM

CC(C)(C)c1cc(-c2sc(C(=O)N[C@H]3C[C@H](C(=O)O)C3)nc2CC2CCCCC2)cc(C(C)(C)F)c1 [Example 24, (trans)-3-(5-(3-(tert-Butyl)-5-(2-fluoropropan-2-yl)phenyl)-4-(cyclohexylmethyl)thiazole-2-carboxamido)cyclobutanecarboxylic acid]
pIC50 (FF) (RORγ; firefly (FF) luciferase, 293T cells): 7.5 | pIC50 (REN) (RORγ; renilla normalised (RENnorm) luciferase, 293T cells): 7.5 | IC50 [1]: 316 nM

CC(C)(C)NS(=O)(=O)c1ccc(-c2oc(C(=O)N3CC4(CCS(=O)(=O)CC4)C3)nc2CC2CCCCC2)c2ccccc12 [100/9]
pIC50 (FF) (RORγ): 6.3/8.5/8.5 | pIC50 (REN) (RORγ): 6.3/8.5/8.5 | pIC50 (FRET) [1]: 6.3/8.5/8.5

CC(C)(C)NS(=O)(=O)c1ccc(-c2sc(C(=O)NC3CCS(=O)(=O)CC3)nc2CC2CC2)c(Cl)c1Cl [6/35]
pIC50 (FF) (RORγ): 7.0/7.5/7.5 | pIC50 (REN) (RORγ): 7.0/7.5/7.5 | pIC50 (FRET) [1]: 7.0/7.5/7.5

CC1CCCCN1C(=O)c1nc(C(=O)NCC(C)(C)O)sc1-c1ccc(S(=O)(=O)NC(C)(C)C)c2ccccc12 (stereo not drawn) [304/7]
pIC50 (FF) (RORγ): 6.1/7.3/7.3 | pIC50 (REN) (RORγ): 6.1/7.3/7.3 | pIC50 (FRET) [1]: 6.1/7.3/7.3

CC(C)(C)NS(=O)(=O)c1ccc(-c2sc(S(N)(=O)=O)nc2CC2CCCCC2)cc1C(F)(F)F [13/2]
pIC50 (FF) (RORγ): 6.5/6.7/6.8 | pIC50 (REN) (RORγ): 6.5/6.7/6.8 | pIC50 (FRET) [1]: 6.5/6.7/6.8

CC(C)(C)NS(=O)(=O)c1ccc(-c2sc(C(=O)NN3CCS(=O)(=O)CC3)nc2CC2CCCCC2)c(Cl)c1Cl [6/21]
pIC50 (FF) (RORγ): 6.8/8.7/8.7 | pIC50 (REN) (RORγ): 6.8/8.7/8.7 | pIC50 (FRET) [1]: 6.8/8.7/8.7
